In ChEMBL document CHEMBL1131878, “Synthesis and biological evaluation of 3-heteroaryloxy-4-phenyl-2(5H)-furanones as selective COX-2 inhibitors” (Bioorg Med Chem Lett, 1999):

What was measured:
[1] = target: Prostaglandin G/H synthase 1 (Homo sapiens, UniProt P23219); assay type: microsomes, U-937, Microsome
Description: Inhibition of COX-1 in U-937 (human lymphoma) cell microsomes.

Rattus norvegicus [2] = assay: Potency in rat paw edema assay; assay type: functional
[3] = Maximum concentration for the bioavailability at a dose of 20 mg/kg administered orally; assay type: ADME, organism-based; set-up: dose 20 mg/kg, route oral; details: in vivo, po
[4] = Slow clearance (CL) was determined; assay type: ADME, organism-based; details: in vivo
Rattus norvegicus [5] = species: Rattus norvegicus; assay: Potency by rat hyperalgesia assay; assay type: functional
Rattus norvegicus [6] = species: Rattus norvegicus; assay: Potency by rat adjuvant arthritis assay; assay type: functional
Rattus norvegicus [7] = species: Rattus norvegicus; assay: Potency by rat pyrexia assay; assay type: functional

Sequence of Prostaglandin G/H synthase 1 (P23219 whole entry): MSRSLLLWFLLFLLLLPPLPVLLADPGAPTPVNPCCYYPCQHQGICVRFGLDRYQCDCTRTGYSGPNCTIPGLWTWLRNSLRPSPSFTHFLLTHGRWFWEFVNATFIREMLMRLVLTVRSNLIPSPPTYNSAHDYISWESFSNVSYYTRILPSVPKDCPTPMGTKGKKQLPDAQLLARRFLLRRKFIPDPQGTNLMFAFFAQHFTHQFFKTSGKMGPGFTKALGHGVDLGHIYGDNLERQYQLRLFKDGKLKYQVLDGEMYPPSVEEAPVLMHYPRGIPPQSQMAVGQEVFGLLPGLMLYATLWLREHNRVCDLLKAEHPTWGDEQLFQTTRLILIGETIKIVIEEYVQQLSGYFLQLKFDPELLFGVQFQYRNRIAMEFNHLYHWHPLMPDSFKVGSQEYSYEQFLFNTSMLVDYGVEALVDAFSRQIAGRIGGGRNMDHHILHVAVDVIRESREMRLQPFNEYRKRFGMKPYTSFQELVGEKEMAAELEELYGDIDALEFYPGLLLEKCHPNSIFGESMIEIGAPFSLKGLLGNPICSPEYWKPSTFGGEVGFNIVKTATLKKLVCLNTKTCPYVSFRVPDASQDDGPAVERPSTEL

Row | IC50 [1] [µM] | Structure (SMILES) | other results
1 | > 100 | CC1(C)OC(=O)C(Oc2ccncc2)=C1c1ccc(S(C)(=O)=O)cc1 | 
2 | 4.6 | CC1(C)OC(=O)C(Oc2ccc(F)cn2)=C1c1ccc(S(C)(=O)=O)cc1 | 
3 | < 0.3 | CC1(C)OC(=O)C(Oc2ccc3sccc3c2)=C1c1ccc(S(C)(=O)=O)cc1 | 
4 | > 10 | CC1(C)OC(=O)C(Oc2cccc(Cl)n2)=C1c1ccc(S(C)(=O)=O)cc1 | 
5 | 3 | CC1(C)OC(=O)C(Oc2ccc(C3CC3)cn2)=C1c1ccc(S(C)(=O)=O)cc1 | 
6 | > 30 | CC1(C)OC(=O)C(Oc2cccnc2)=C1c1ccc(S(C)(=O)=O)cc1 | 
7 | > 10 | CC1(C)OC(=O)C(Oc2ccccn2)=C1c1ccc(S(C)(=O)=O)cc1 | ED50 (Rattus norvegicus [2]): > 10 mg/kg
8 | 0.3 | CC1(C)OC(=O)C(Oc2ncc(Cl)cc2Cl)=C1c1ccc(S(C)(=O)=O)cc1 | 
9 | > 10 | CC1(C)OC(=O)C(Oc2ncnc3ccccc23)=C1c1ccc(S(C)(=O)=O)cc1 | 
10 | 3 | Cc1ccc(OC2=C(c3ccc(S(C)(=O)=O)cc3)C(C)(C)OC2=O)nc1 | 
11 | > 10 | CC1(C)OC(=O)C(Oc2cnccn2)=C1c1ccc(S(C)(=O)=O)cc1 | 
12 |  | CC1(C)OC(=O)C(Oc2ccc(Cl)cn2)=C1c1ccc(S(C)(=O)=O)cc1 | Cmax [3]: 16 µM; ED50 (Rattus norvegicus [2]): 0.75 mg/kg; CL [4]: 4.8
13 | 3 | CC1(C)OC(=O)C(Oc2ccc3ccccc3n2)=C1c1ccc(S(C)(=O)=O)cc1 | 
14 | 1 | CC1(C)OC(=O)C(Oc2ccc3[nH]ccc3c2)=C1c1ccc(S(C)(=O)=O)cc1 | 
15 | 5.6 | CC1(C)OC(=O)C(Oc2ccc(Br)cn2)=C1c1ccc(S(C)(=O)=O)cc1 | ED50 (Rattus norvegicus [2]): 0.86 mg/kg; ED50 (Rattus norvegicus [5]): 0.6 mg/kg; ED50 (Rattus norvegicus [6]): 0.2 mg/kg; ED50 (Rattus norvegicus [7]): 0.3 mg/kg
16 | 1 | CC1(C)OC(=O)C(Oc2ncccc2Cl)=C1c1ccc(S(C)(=O)=O)cc1 | 
17 | 3 | CC1(C)OC(=O)C(Oc2cccc3cnccc23)=C1c1ccc(S(C)(=O)=O)cc1 | 
18 | > 10 | CC1(C)OC(=O)C(Oc2ncccn2)=C1c1ccc(S(C)(=O)=O)cc1 | 
19 |  | CS(=O)(=O)c1ccc(C2=C(c3ccccc3)C(=O)OC2)cc1 [ROFECOXIB] | ED50 (Rattus norvegicus [2]): 1.5 mg/kg
